The values below come from US20140275257A1, “N-ACETYL CYSTEINE COMPOSITIONS IN THE TREATMENT OF SYSTEMIC LUPUS ERYTHEMATOSUS” (Foundation for the State University of New York, priority 2013, published 2014).

In one test the test system is SLE patients. Briefly: British Isles Lupus Assessment Group (BILAG) score in NAC pilot study. As to conditions: for BILAG: all patients treated with NAC, baseline 26.2. Type of test: in vivo, human. Here is the method:
The BILAG index is more comprehensive than the SLEDAI, recording clinical disease activity in 8 different organ systems for a total of 101 items. Each item is measured qualitatively by clinical observation (yes/no, improving/same/worse/new) or quantitatively by measuring hematologic and renal lab values. […] Normally, a total score is not calculated. However, it can be converted into a disease activity scale by assigning points to the alphabetical score: A=9, B=3, C=1, D=0, E=0, with a maximum potential score of 72. (Lam, G. K. W. and Petri, M., “Assessment of systemic lupus erthematosus,” Clin. Exp. Rheumatol., 23 (Supp. 39): S120-S132 (2005)). The classical BILAG index was subsequently updated as the BILAG 2004 index. […] Development and initial validation of an updated version of the British Isles Lupus Assessment Group's disease activity index for patients with systemic lupus erythematosus,” Rheumatology, 44: 902-906 (2005). According to the BILAG 2004 index, all features must be attributable to SLE and refer to the last 4 weeks compared with the previous 4 weeks; in some manifestations, it may be difficult to differentiate SLE from other causes as there may not be any specific test and the decision would then lies with the physician's judgement on the balance of probabilities. The term “improvement” is defined as (a) the amount that is sufficient for consideration of reduction in therapy; and (b) that which is present ≧2 weeks of the previous 4 weeks. Scoring for features is indicated as: (0) not present; (1) Improving; (2) Same; (3) Worse; (4) New.
A complete physical examination of the cardiovascular, respiratory, gastrointestinal, musculoskeletal, neurological systems, skin, head, neck, sinuses, nasal and oral cavities were performed at each visit. SLE disease activity was assessed by using the British Isles Lupus Assessment Group (BILAG) (Isenberg, D. A. et al., “BILAG 2004. Development and initial validation of an updated version of the British Isles Lupus Assessment Group's disease activity index for patients with systemic lupus erythematosus,” Rheumatology 44(7): 902-906 (2005)) and SLE Disease Activity Index (SLEDAI) (Bombardier, C. et al., “Derivation of the SLEDAI. A disease activity index for lupus patients,” Arth. Rheum., 35: 630-640 (1992)). The concurrent use and dosage of prednisone and other medications were documented.
Lupus disease activity was measured by SLEDAI and BILAG and fatigue was evaluated by FAC at baseline (visit 1) as well as monthly during a 3-month intervention (visits 2-4) and after a 1-month washout period (visit 5).
Overall clinical effectiveness of NAC relative to placebo was analyzed with multilevel modeling as implemented in the STATA routine XTMIXED (from StataCorp, College Station, Tex.), with the three nested levels being drug group, subject within drug group and study visit within subject. All models included fixed effects for drug group, study visit and the drug group by study visit interaction along with random intercepts at each design level. […] The reduction in lupus disease activity SLEDAI scores was greater for the NAC than placebo group, as indicated by a significant visit by drug interaction (z=−2.14, p=0.033). The reduction in BILAG scores was also greater for NAC than placebo group. The overall effect was statistically significant as indicated by a significant visit by drug interaction (z=−2.62, p=0.009). Two tailed paired t-test was used to assess the effects of placebo and of each and all NAC doses on clinical indices and biomarkers recorded on visits 2-5 relative to visit 1; p<0.05 was considered significant. Patients and controls were compared with two-tailed unpaired t-test.

The subject of a further test is GSH in whole blood. Briefly: HPLC assay of GSH in whole blood of SLE patients. Conditions: after 1 and 2 months of NAC treatment. Type of test: in vivo, human. Here is the method: Reduced glutathione (GSH) was measured by reverse phase ion-exchange HPLC using UV detection at 365 nm, as described in Gergely, P. J. et al., “Mitochondrial hyperpolarization and ATP depletion in patients with systemic lupus erythematosus,” Arth. Rheum., 46: 175-190 (2002); and Hanczko, R. et al., “Prevention of hepatocarcinogenesis and acetaminophen-induced liver failure in transaldolase-deficient mice by N-acetylcysteine,” J. Clin. Invest., 119: 1546-1557 (2009). The disclosures of each of these references are incorporated by reference herein in their entirety.
GSH was measured in whole blood and peripheral blood lymphocytes (PBL) before (visit 1; 0 h) and after the first NAC/placebo dose (visit 1; 3 h and 6 h) and upon each monthly follow-up visit (visits 2-4: between 9-11 am after having taken the last NAC/placebo capsule 8 pm the night before), and after 1 month wash-out (visit 5). HPLC analysis required ˜0.25 ml of whole blood and 5×10^6 PBL which were obtained from a total of 10 ml of blood collected at each time point.

For test [1], the system named is idiopathic pulmonary fibrosis patients. As to conditions: "high-dose" oral NAC (1.8 g/day); Demedts et al. (2005); cited from earlier work.

In the case of `CC(=O)N[C@@H](CS)C(=O)O` [NAC, N-acetyl-L-cysteine], the “effect on SLE disease activity, BILAG” value in the test on SLE patients (NAC dose 1 (1.2 g/day)) is “did not influence”. In the test with SLE patients (NAC dose 2 (2.4 g/day) and dose 3 (4.8 g/day), after 1 month (p=0.029) and 3 months (p=0.0009)), the “effect on BILAG” value is “reduced”. The “effect on BILAG (mixed model analysis)” value with SLE patients (NAC dosing group 3 (4.8 g/day), XTMIXED z=−2.19, p=0.029) is “significant reduction”. The “reduction in BILAG relative to placebo (mixed model analysis)” value in the test on SLE patients (NAC groups, visit by drug interaction, XTMIXED z=−2.62, p=0.009) is on record as “greater”. In addition, the “swollen joint count (BILAG component)” value in the test on SLE patients (after 3-month NAC treatment with dose 3, XTMIXED z=−2.0, p=0.046) is recorded as “reduced”; with SLE patients (after 3-month NAC treatment, all doses combined, XTMIXED z=−2.2, p=0.028), “reduced”. Moreover, the BILAG in the test on SLE patients (after 1 month (visit 2), p=0.0158) is 22.3; with SLE patients (after 2 months (visit 3), p=0.0223) it was 22.2. For the same compound, the “GSH in whole blood” value in the test with GSH in whole blood is recorded as “increased”. Moreover, in test [1], the “disease severity in idiopathic pulmonary fibrosis” value is recorded as “diminished disease severity”.
